pEC50: −log10 of the molar value.

This note sets out measurements from ChEMBL document CHEMBL3352104, “Biological evaluation and structural insights for design of subtype-selective peroxisome proliferator activated receptor-α (PPAR-α) agonists” (Bioorg Med Chem Lett, 2015).

Assay [1] concerns the target T1, Peroxisome proliferator-activated receptor alpha (Homo sapiens, UniProt Q07869).
T1 sequence (Q07869 whole entry): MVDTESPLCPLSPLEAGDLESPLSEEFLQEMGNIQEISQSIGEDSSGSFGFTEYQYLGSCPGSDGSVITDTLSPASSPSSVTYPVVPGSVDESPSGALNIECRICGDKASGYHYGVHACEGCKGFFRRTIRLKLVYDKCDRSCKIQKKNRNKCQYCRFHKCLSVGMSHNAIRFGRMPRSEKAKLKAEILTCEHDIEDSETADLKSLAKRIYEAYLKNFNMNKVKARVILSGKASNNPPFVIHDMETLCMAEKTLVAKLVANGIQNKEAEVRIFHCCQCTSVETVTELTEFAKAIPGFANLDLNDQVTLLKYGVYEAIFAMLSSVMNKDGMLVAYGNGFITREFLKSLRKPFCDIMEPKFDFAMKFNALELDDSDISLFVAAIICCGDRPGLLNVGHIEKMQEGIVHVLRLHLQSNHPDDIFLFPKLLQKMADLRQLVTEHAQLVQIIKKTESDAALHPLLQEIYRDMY
In words: Agonist activity at GAL4-tagged PPARalpha ligand-binding domain (unknown origin) expressed in HEK293T cells incubated for 16 to 19 hrs by beta-lactamase reporter gene assay. In kind it is cell-based, HEK-293T. For orientation: In a reporter assay the amount or activity of a reporter protein is the signal.

Assay [2] addresses T2, Peroxisome proliferator-activated receptor gamma (Homo sapiens, UniProt P37231).
T2 sequence (P37231 whole entry): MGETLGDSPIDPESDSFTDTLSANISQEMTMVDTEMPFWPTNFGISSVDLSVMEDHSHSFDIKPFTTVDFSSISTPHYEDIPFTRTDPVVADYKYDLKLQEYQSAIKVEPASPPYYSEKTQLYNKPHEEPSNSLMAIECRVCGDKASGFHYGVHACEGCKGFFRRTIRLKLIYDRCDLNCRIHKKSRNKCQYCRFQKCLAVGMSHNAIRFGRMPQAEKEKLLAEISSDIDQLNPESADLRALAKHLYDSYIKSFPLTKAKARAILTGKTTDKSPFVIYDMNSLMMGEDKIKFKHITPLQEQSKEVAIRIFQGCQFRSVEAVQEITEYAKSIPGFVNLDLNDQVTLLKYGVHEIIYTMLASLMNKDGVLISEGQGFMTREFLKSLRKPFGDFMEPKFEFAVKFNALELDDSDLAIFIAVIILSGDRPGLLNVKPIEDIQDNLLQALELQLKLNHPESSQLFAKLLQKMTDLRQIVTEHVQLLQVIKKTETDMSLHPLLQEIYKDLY
The experiment in a line: Agonist activity at GAL4-tagged PPARgamma (unknown origin).

Assay [3] has as its target T3, Peroxisome proliferator-activated receptor delta (Homo sapiens, UniProt Q03181).
T3 sequence (Q03181 whole entry): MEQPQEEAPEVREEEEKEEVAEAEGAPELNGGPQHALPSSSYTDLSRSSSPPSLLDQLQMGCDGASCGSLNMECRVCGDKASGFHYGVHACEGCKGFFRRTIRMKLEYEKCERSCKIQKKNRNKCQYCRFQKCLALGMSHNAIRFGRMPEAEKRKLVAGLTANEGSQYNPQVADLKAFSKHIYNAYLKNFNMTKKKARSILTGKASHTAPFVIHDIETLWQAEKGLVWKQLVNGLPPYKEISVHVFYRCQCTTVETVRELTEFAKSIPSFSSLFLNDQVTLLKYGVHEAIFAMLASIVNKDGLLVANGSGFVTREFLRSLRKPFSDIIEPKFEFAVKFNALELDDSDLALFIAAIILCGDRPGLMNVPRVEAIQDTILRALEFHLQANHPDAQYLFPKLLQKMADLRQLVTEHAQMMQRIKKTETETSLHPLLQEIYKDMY
In words: Agonist activity at GAL4-tagged PPARdelta (unknown origin).

For the compound `CCCCCOC(=O)c1ccc(NC(=O)c2cccc(NC(=O)c3ccccc3C(=O)O)c2)cc1`, the pEC50 (usually the negative decadic logarithm of the EC50, by convention in mol/L) in assay [1] is 8.96. Consider `Cc1nc(-c2ccc(Cl)cc2)sc1C(=O)N[C@H]1CCCN(c2cccc(C(=O)O)c2)C1`, for which the pEC50 in assay [2] was 5.18; in assay [3], 4.89. In the case of `Cc1ccc(-c2nc(C)c(C(=O)N[C@H]3CCCN(c4cccc(C(=O)O)c4)C3)s2)cc1`, the pEC50 in assay [2] is 5.51; in assay [3], 4.96. In assay [1], `Cc1c(C(=O)O)cccc1-c1ccc(/C=C2/SC(=O)N(CC(=O)Nc3ccc(F)cc3)C2=O)o1` had a pEC50 of 9.80.

`CCOC(=O)C1=C(Nc2ccc(OCC)cc2)S/C(=C/c2ccc(OCC(=O)O)c(OC)c2)C1=O` had a pEC50 in assay [1] of 7.92.

For `Cc1nc(-c2cccc(C(F)(F)F)c2)sc1CNCc1ccc(OC(C)(C)C(=O)O)cc1`, the pEC50 in assay [2] is 4.60; in assay [1], 8.40; in assay [3], 4.60. As to `CC[C@@H](Oc1cccc(CN(CCCOc2ccc(OC)cc2)c2nc3ccccc3o2)c1)C(=O)O` [PEMAFIBRATE], the pEC50 is 5.77 in assay [2] and 5.00 in assay [3].
